Experimental data taken from PubChem BioAssay AID1259411 (Chemical Carcinogenesis Research Information System (CCRIS), 2018).
Calls of active or inactive are those of the source. The rule behind the calls is not given here.

Test system: rodent carcinogenicity bioassays, tumor incidence
Test: CCRIS carcinogenicity studies
Method in brief: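 NCI-built, expert-reviewed records of carcinogenicity and related test outcomes (mutagenicity, tumor promotion/inhibition) compiled from published and report sources, historical span 1985-2011, not updated.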

Question: With `O=S(=O)(O)c1cc(S(=O)(=O)O)c2c(N=Nc3ccccc3)c(O)ccc2c1` as the compound, how does the carcinogen call (Species: MOUSE, Strain/Sex: B6C3F1/FEMALE, Route: ORAL, Dose: 0, 3000, 6000 PPM IN DIET FOR 103 WK (STUDY DURATION: 104 WK), Dose: 0, 3000, 6000 PPM IN DIET FOR 103 WK (STUDY DURATION: 104 WK)) read?
Answer: The carcinogen call was “inactive; negative”.

Question: And the carcinogen call (Species: MOUSE, Strain/Sex: B6C3F1/MALE, Route: ORAL, Dose: 0, 3000, 6000 PPM IN DIET FOR 103 WK (STUDY DURATION: 104 WK), Dose: 0, 3000, 6000 PPM IN DIET FOR 103 WK (STUDY DURATION: 104 WK))?
Answer: The carcinogen call was “inactive; negative”.

Question: And the carcinogen call (Species: RAT, Strain/Sex: F344/FEMALE, Route: ORAL, Dose: 0, 1000, 3000 PPM IN DIET FOR 103 WK (STUDY DURATION: 104 WK), Dose: 0, 1000, 3000 PPM IN DIET FOR 103 WK (STUDY DURATION: 104 WK))?
Answer: The carcinogen call was “inactive; negative”.

Question: And the carcinogen call (Species: RAT, Strain/Sex: F344/MALE, Route: ORAL, Dose: 0, 1000, 3000 PPM IN DIET FOR 103 WK (STUDY DURATION: 104 WK), Dose: 0, 1000, 3000 PPM IN DIET FOR 103 WK (STUDY DURATION: 104 WK))?
Answer: The carcinogen call was “inactive; negative”.

Question: For `O=C(O)CCCOc1ccc(Cl)cc1Cl`, which carcinogen call (Species: MOUSE, Strain/Sex: ICR/FEMALE, Route: ORAL, Dose: 0, 25, 250, 750 PPM IN DIET FOR 78 WK (STUDY DURATION: 78 WK), Dose: 0, 25, 250, 750 PPM IN DIET FOR 78 WK (STUDY DURATION: 78 WK)) is on record?
Answer: The carcinogen call was “inactive; negative”.

Question: And the carcinogen call (Species: MOUSE, Strain/Sex: ICR/MALE, Route: ORAL, Dose: 0, 25, 250, 750 PPM IN DIET FOR 78 WK (STUDY DURATION: 78 WK), Dose: 0, 25, 250, 750 PPM IN DIET FOR 78 WK (STUDY DURATION: 78 WK))?
Answer: The carcinogen call was “inactive; negative”.

Question: And the carcinogen call (Species: RAT, Strain/Sex: SPRAGUE-DAWLEY/FEMALE, Route: ORAL, Dose: 0, 60, 600, 1800 PPM IN DIET FOR 104 WK (STUDY DURATION: 104 WK), Dose: 0, 60, 600, 1800 PPM IN DIET FOR 104 WK (STUDY DURATION: 104 WK))?
Answer: Its carcinogen call is “inactive; negative”.

Question: What about the carcinogen call (Species: RAT, Strain/Sex: SPRAGUE-DAWLEY/MALE, Route: ORAL, Dose: 0, 60, 600, 1800 PPM IN DIET FOR 104 WK (STUDY DURATION: 104 WK), Dose: 0, 60, 600, 1800 PPM IN DIET FOR 104 WK (STUDY DURATION: 104 WK)) of the same compound?
Answer: Its carcinogen call is “inactive; negative”.

Question: Which results are given for `OC[C@@H](O)[C@@H](O[C@@H]1O[C@H](CO)[C@H](O)[C@H](O)[C@H]1O)[C@H](O)[C@@H](O)CO`?
Answer: carcinogen call (Species: MOUSE, Strain/Sex: CPB:SWISS/FEMALE, Route: ORAL, Dose: 0, 2, 5, 10% IN DIET FOR 104 WK (STUDY DURATION: 734 D), Dose: 0, 2, 5, 10% IN DIET FOR 104 WK (STUDY DURATION: 734 D)): inactive; negative; carcinogen call (Species: MOUSE, Strain/Sex: CPB:SWISS/MALE, Route: ORAL, Dose: 0, 2, 5, 10% IN DIET FOR 104 WK (STUDY DURATION: 730 D), Dose: 0, 2, 5, 10% IN DIET FOR 104 WK (STUDY DURATION: 730 D)): inactive; negative; carcinogen call (Species: RAT, Strain/Sex: SPF/FEMALE, Route: ORAL, Dose: 0, 2, 5, 10% IN DIET FOR DURATION OF STUDY ADMINISTERED TO OFFSPRING OF RATS FED THE SAME DIETS (STUDY DURATION: 130 WK), Dose: 0, 2, 5, 10% IN DIET FOR DURATION OF STUDY ADMINISTERED TO OFFSPRING OF RATS FED THE SAME DIETS (STUDY DURATION: 130 WK)): inactive; negative; carcinogen call (Species: RAT, Strain/Sex: SPF/MALE, Route: ORAL, Dose: 0, 2, 5, 10% IN DIET FOR DURATION OF STUDY ADMINISTERED TO OFFSPRING OF RATS FED THE SAME DIETS (STUDY DURATION: 130 WK), Dose: 0, 2, 5, 10% IN DIET FOR DURATION OF STUDY ADMINISTERED TO OFFSPRING OF RATS FED THE SAME DIETS (STUDY DURATION: 130 WK), Tumor Site: Type of Lesion: TESTES: LEYDIG CELL TUMOR): active; positive

Question: Which carcinogen call (Species: Mouse, Strain/Sex: CD-1/Female, Route: Oral, Dose: 0, 5, 250, 1000 mg/kg/d in feed for 18 mo, Dose: 0, 5, 250, 1000 mg/kg/d in feed for 18 mo) does the source give for `Nc1cc(Cl)nc(C(=O)O)c1Cl` here?
Answer: Its carcinogen call is “inactive; negative; purity was 94.5%”.

Question: And the carcinogen call (Species: Mouse, Strain/Sex: CD-1/Male, Route: Oral, Dose: 0, 5, 250, 1000 mg/kg/d in feed for 18 mo, Dose: 0, 5, 250, 1000 mg/kg/d in feed for 18 mo)?
Answer: Its carcinogen call is “inactive; negative; purity was 94.5%”.

Question: What about the carcinogen call (Species: Rat, Strain/Sex: F344/Female, Route: Oral, Dose: 0, 5, 50, 500, 1000 mg/kg/d in feed for 24 mo, Dose: 0, 5, 50, 500, 1000 mg/kg/d in feed for 24 mo) of the same compound?
Answer: Its carcinogen call is “inactive; negative; purity was 94.5%”.

Question: What about the carcinogen call (Species: Rat, Strain/Sex: F344/Male, Route: Oral, Dose: 0, 5, 50, 500, 1000 mg/kg/d in feed for 24 mo, Dose: 0, 5, 50, 500, 1000 mg/kg/d in feed for 24 mo) of the same compound?
Answer: The carcinogen call was “inactive; negative; purity was 94.5%”.

Question: With `Cc1cc2c(c3ccc4ccccc4c13)[C@@H]1O[C@@H]1[C@H](O)[C@H]2O` as the compound, how does the carcinogen call (Species: MOUSE, Strain/Sex: ICR/FEMALE, Route: INTRAPERITONEAL, Dose: 8 NMOL/5 µL DMSO ON DAY 1, 16 NMOL/10 µL ON DAY 8, AND 32 NMOL/20 µL ON DAY 15 OF AGE (STUDY DURATION: 35 WK)) read?
Answer: The carcinogen call was “inactive; negative”.

Question: And the carcinogen call (Species: MOUSE, Strain/Sex: ICR/MALE, Route: INTRAPERITONEAL, Dose: 8 NMOL/5 µL DMSO ON DAY 1, 16 NMOL/10 µL ON DAY 8, AND 32 NMOL/20 µL ON DAY 15 OF AGE (STUDY DURATION: 35 WK), Tumor Site: Type of Lesion: LUNG: TUMORS)?
Answer: Its carcinogen call is “active; positive”.

Question: For `O=[O+][O-]`, which carcinogen call (Species: MOUSE, Strain/Sex: B6C3F1/FEMALE, Route: INHALATION, Dose: 0, 0.12, 0.5, 1 PPM 6 HR/D 5 D/WK FOR 105 WK (STUDY DURATION: 105 WK), Dose: 0, 0.12, 0.5, 1 PPM 6 HR/D 5 D/WK FOR 105 WK (STUDY DURATION: 105 WK), Tumor Site: Type of Lesion: LUNG (ALVEOLAR/BRONCHIOLAR): ADENOMA OR CARCINOMA) is on record?
Answer: The carcinogen call was “active; positive”.

Question: What about the carcinogen call (Species: MOUSE, Strain/Sex: B6C3F1/FEMALE, Route: INHALATION, Dose: 0, 0.5, 1 PPM 6 HR/D 5 D/WK FOR 130 WK (STUDY DURATION: 130 WK), Dose: 0, 0.5, 1 PPM 6 HR/D 5 D/WK FOR 130 WK (STUDY DURATION: 130 WK), Tumor Site: Type of Lesion: LUNG (ALVEOLAR/BRONCHIOLAR): ADENOMA) of the same compound?
Answer: Its carcinogen call is “active; positive”.

Question: What about the carcinogen call (Species: MOUSE, Strain/Sex: B6C3F1/MALE, Route: INHALATION, Dose: 0, 0.12, 0.5, 1 PPM 6 HR/D 5 D/WK FOR 105 WK (STUDY DURATION: 105 WK), Dose: 0, 0.12, 0.5, 1 PPM 6 HR/D 5 D/WK FOR 105 WK (STUDY DURATION: 105 WK), Tumor Site: Type of Lesion: LUNG: ALVEOLAR/BRONCHIOLAR ADENOMA OR CARCINOMA) of the same compound?
Answer: Its carcinogen call is “equivocal”.

Question: What about the carcinogen call (Species: MOUSE, Strain/Sex: B6C3F1/MALE, Route: INHALATION, Dose: 0, 0.5, 1 PPM 6 HR/D 5 D/WK FOR 130 WK (STUDY DURATION: 130 WK), Dose: 0, 0.5, 1 PPM 6 HR/D 5 D/WK FOR 130 WK (STUDY DURATION: 130 WK), Tumor Site: Type of Lesion: LUNG: ALVEOLAR/BRONCHIOLAR ADENOMA OR CARCINOMA) of the same compound?
Answer: The carcinogen call was “equivocal”.

Question: And the carcinogen call (Species: RAT, Strain/Sex: F344/FEMALE, Route: INHALATION, Dose: 0, 0.12, 0.5, 1 PPM 6 HR/D 5 D/WK FOR 20 MO (STUDY DURATION: 20 MO), Dose: 0, 0.12, 0.5, 1 PPM 6 HR/D 5 D/WK FOR 20 MO (STUDY DURATION: 20 MO))?
Answer: The carcinogen call was “inactive; negative”.

Question: What about the carcinogen call (Species: RAT, Strain/Sex: F344/FEMALE, Route: INHALATION, Dose: 0, 0.12, 0.5, 1 PPM 6 HR/D 5 D/WK FOR 105 WK (STUDY DURATION: 105 WK), Dose: 0, 0.12, 0.5, 1 PPM 6 HR/D 5 D/WK FOR 105 WK (STUDY DURATION: 105 WK)) of the same compound?
Answer: Its carcinogen call is “inactive; negative”.

Question: And the carcinogen call (Species: RAT, Strain/Sex: F344/FEMALE, Route: INHALATION, Dose: 0, 0.5, 1 PPM 6 HR/D 5 D/WK FOR 125 WK (STUDY DURATION: 125 WK), Dose: 0, 0.5, 1 PPM 6 HR/D 5 D/WK FOR 125 WK (STUDY DURATION: 125 WK))?
Answer: Its carcinogen call is “inactive; negative”.

Question: And the carcinogen call (Species: RAT, Strain/Sex: F344/MALE, Route: INHALATION, Dose: 0, 0.12, 0.5, 1 PPM 6 HR/D 5 D/WK FOR 20 MO (STUDY DURATION: 20 MO), Dose: 0, 0.12, 0.5, 1 PPM 6 HR/D 5 D/WK FOR 20 MO (STUDY DURATION: 20 MO))?
Answer: The carcinogen call was “inactive; negative”.

Question: What about the carcinogen call (Species: RAT, Strain/Sex: F344/MALE, Route: INHALATION, Dose: 0, 0.12, 0.5, 1 PPM 6 HR/D 5 D/WK FOR 105 WK (STUDY DURATION: 105 WK), Dose: 0, 0.12, 0.5, 1 PPM 6 HR/D 5 D/WK FOR 105 WK (STUDY DURATION: 105 WK)) of the same compound?
Answer: The carcinogen call was “inactive; negative”.

Question: And the carcinogen call (Species: RAT, Strain/Sex: F344/MALE, Route: INHALATION, Dose: 0, 0.5, 1 PPM 6 HR/D 5 D/WK FOR 125 WK (STUDY DURATION: 125 WK), Dose: 0, 0.5, 1 PPM 6 HR/D 5 D/WK FOR 125 WK (STUDY DURATION: 125 WK))?
Answer: Its carcinogen call is “inactive; negative”.
